Consider 4 molecules from patent US20050187150A1, “Structure-based design and synthesis of FGF inhibitors and FGF modulator compounds” (New York University, priority 2001, published 2005).

Experiment [1] deals with T1, FGF2-FGFR1 complexes (Homo sapiens, UniProt P09038+P11362).
T1 construct: made in house
As to the kind of experiment: Size exclusion chromatography of purified 1:1 FGF2:FGFR1 complexes mixed with test compound (dimerization). In kind it is binding. As to conditions: for dimerization of FGF:FGFR complex (peaks in size exclusion chromatogram): compound added at 1:1:1 molar ratio FGF2:FGFR1:compound; for dimerization of FGF:FGFR complex (dimer peak D in size exclusion chromatogram): compound added at molar ratio 1:1:0.25 and 1:1:0.5 FGF2:FGFR1:compound, Superdex 200, 25 mM HEPES-NaOH pH 7.5, 150 mM NaCl. The source says:
A construct encoding an extracellular ligand binding portion of the FGFR1 polypeptide set forth in FIG. 1A (SEQ ID NO:1) was expressed in E. coli and refolded […] using established protocols, as previously described by Plotnikov et al. (Cell 2000, 101:413-424). In particular, the soluble FGFR1 polypeptide expressed by this construct, which is referred to here as D23, comprises amino acid residues 142 to 365 of SEQ ID NO:1, which correspond to the immunoglobulin (Ig)-like domains 2 and 3 (D2 and D3, respectively), which are known to confer ligand binding and specificity for the FGFR receptor. However, the D23 polypeptide is missing the Ig-like domain 1 (D1), the acid box and the linker polypeptide sequence between D3 and the transmembrane helix. The D23 polypeptide is therefore similar to a naturally occurring splice variant of FGFR1 that retains full ligand binding capacity (Johnson et al., Mol. Cell. Biol. 1990, 10:4728-4736).
When expressed in E. coli cells, the D23 polypeptide was found entirely in inclusion bodies. The polypeptide was solubilized using standard denaturing reagents and refolded in vitro. Following purification by ion exchange chromatography, the D23 polypeptide was complexed with the FGF2 ligand polypeptide whose amino acid sequence is set forth in FIG. 2A (SEQ ID NO:3) and purified by size exclusion chromatography.
To quantitate dimerization, the purified 1:1 FGF2:FGFR1 complexes were mixed at various molar ratios with SOS and analyzed by size exclusion chromatography according on SUPERDEX 200® (Amersham Pharmacia Biotech.) size exclusion column in 25 mM HEPES-NaOH buffer (pH 7.5) containing 150 mM sodium chloride.
In these experiments, two milligram aliquots of the purified FGF2-FGFR1 complex described, supra, in Example 1 were mixed with suramin and analyzed on a size exclusion column equilibrated with 25 mM HEPES-NaOH buffer (pH 7.5) containing 150 mM NaCl.
(In general: In gel filtration, larger molecules generally elute earlier.)

In experiment [2] the test system is BaF3 cells that stably expressed wild-type FGFR1. Description: Proliferation of BaF3 cells stably expressing FGFR1 in the presence of FGF2. In kind it is cell-based. The source says: This example describes experiments that investigated the ability of SOS to modulate FGF ligand-dependent activation of the FGF receptor in vivo. In particular, an assay is described here that uses a BaF3 cell line which overexpresses FGFR1. This cell line has been previously described and is therefore known in the art (see, e.g., Huang et al., J. Biol. Chem. 1995, 270:5065-5072).
BaF3 cells are a lymphoid cell line, which are dependent on interleukin-3 (IL-3) for growth. […] Accordingly, the growth rate of such transfected cells is useful as a measurement of FGF receptor activity in vivo. Because BaF3 cells express only low amounts of HSPG, soluble heparin must also be present to elicit the FGF-dependent mitogenic response observed in the transfected cells.
For the experiments discussed here, BaF3 cells that stably expressed wild-type FGFR1 (SEQ ID NO:1) were cultured according to standard methods that have been previously described (see, Huang et al., supra). 1×10^4 cells were seeded in triplicate wells and grown in the presence of heparin (3 μM) or, alternatively, in the presence of various concentrations (0.1, 0.5, 1, 5 and 10 μM, respectively) of SOS. The numbers of viable cells in each well were counted daily in duplicate.
Paradoxically, however, FGFR dimers promoted by suramin are signaling incompetent. That is to say, the FGF receptor is not activated in these dimers. […]

The next experiment relates to FGFR1. As to the kind of experiment: FGF receptor autophosphorylation in BaF3 cells over-expressing FGFR (anti-FGFR1 immunoprecipitation, phosphotyrosine immunoblot). In kind it is cell-based. As to conditions: five minutes stimulation with FGF1 50 ng/ml plus heparin 10 μg/ml or sulfonated cyclodextrin 5 or 25 μM. The procedure:
To verify that the effect of sulfonated β-cyclodextrin observed in FIG. 15A is actually due to activation of the FGF receptor, experiments were conducted that examined the capacity of heparin and β-cyclodextrin to stimulate kinase activity of FGF receptor in living cells. See, Mohammadi et al., Science 1997, 276:955-960 for a detailed description of such experiments.
Briefly, BaF3 cells over-expressing FGFR were stimulated for five minutes with FGF1 ligand (50 ng/ml), heparin (10 μg/ml) and/or sulfonated […] 5 or 25 μM). The cells were then lysed. Their proteins were immunoprecipitated with antibodies to FGFR1, separated by SDS-polyacrylamide gel electrophoresis (PAGE), immunoblotted with antibodies to phosphotyrosine, and detected by autoradiography. […] See, the left-hand and right-hand lanes, respectively, in FIG. 15B.

The subject of the next experiment is ERK-1 and ERK-2. Description: ERK-1/ERK-2 phosphorylation in BaF3 cells over-expressing FGFR1 (immunoblot). Format: cell-based. Particulars: co-incubation with FGF1 50 ng/ml; heparin 10 μg/ml or sulfonated β-cyclodextrin 5 and 25 μM. For orientation: Immunoblotting shows a protein as a band on a membrane.
Experiment [3] deals with T1, FGF2-FGFR1 complexes. Description: X-ray crystallography of the dimeric FGF2-FGFR1-SOS ternary complex. The procedure:
This example describes x-ray crystallography experiments that better characterize the molecular mechanisms by which SOS may interact with and/or stabilize dimers of FGF-FGFR complexes. In particular, this example describes the crystalization of FGF2-FGFR1 complexes with SOS and the solution of that crystal structure by analyzing x-ray diffraction data.
Crystals of dimeric FGF2-FGFR1-SOS complexes were grown by vapor diffusion at 20° C. using the hanging drop method. 2 μL of protein solution (10 mg/mL in 25 mM HEPES-NaOH (pH 7.5) and 150 mM NaCl) was mixed with an equal volume of crystallization buffer (12-16% Polyethylene glycol 5000, 0.2 M ammonium sulfate and 15% glycerol in 0.1 M HEPES-NaOH (pH 7.5)). The protein solution contained a 1:1:1 stoichiometric ratio of FGF2, and soluble FGFR1 construct described, supra, in Example 1, and SOS.
The crystal belongs to the orthorhombic space group P21 21 21 and has unit cell dimensions of a=64.2 Å, b=122.4 Å and c=219.5 Å. The crystal contains four FGF2-FGFR1-SOS complexes in the asymmetric unit with a solvent content of about 56%.
Diffraction data were collected from a flash-frozen crystal on a CCD detector at beamline X4A at the National Synchrotron Light Source, Brookhaven National Laboratory. The data were processed using DENZO and SCALEPACK (Otwinowski & Minor, Methods Enzymol. 1997, 276:307-326). […]

For experiment [4], the system named is BaF3 cells that stably express wild-type FGFR1. Description: Proliferation of BaF3 cells stably expressing FGFR1 in the presence of FGF1. In kind it is cell-based. Particulars: FGF1 50 ng/ml; sulfonated β-cyclodextrin 1, 5, 10 and 25 μM. From the text:
This examples describes experiments that investigate the ability of sulfonated β-cyclodextrin to function as an effective heparin agonists. In particular, the cell-based assay described in Example 2, supra, is used here to investigate the ability of sulfonated β-cyclodextrin to modulate FGF ligand-dependent activation of the FGF receptor in vivo.
The assay uses a BaF3 cell line which overexpresses FGFR1. This cell line has been previously described and is known in the art (see, e.g., Huang et al., J. Biol. Chem. 1995, 270:5065-5072). BaF3 cells are a lymphoid cell line, which are dependent on interleukin-3 (IL-3) for growth. […] Accordingly, the growth rate of such transfected cells is useful as a measurement of FGF receptor activity in vivo. Ordinarily, because BaF3 cells express only low amounts of HSPG, soluble heparin must also be present to elicit the FGF-dependent mitogenic response observed in the transfected cells.
For the experiments described here, BaF3 cells that stably express wild-type FGFR1 ([…]) were cultured according to standard methods that have been previously described (see, Huang et al., supra). […] The numbers of viable cells in each well were counted daily in duplicate. […]

T1 sequence (P11362 142-365): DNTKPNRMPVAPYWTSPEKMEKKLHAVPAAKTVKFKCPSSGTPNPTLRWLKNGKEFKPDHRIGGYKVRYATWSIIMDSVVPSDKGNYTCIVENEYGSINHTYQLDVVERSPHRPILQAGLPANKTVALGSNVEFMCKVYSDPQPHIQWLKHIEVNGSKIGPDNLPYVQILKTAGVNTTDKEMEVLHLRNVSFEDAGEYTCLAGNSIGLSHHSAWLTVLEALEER
T1 sequence (P09038 134-288): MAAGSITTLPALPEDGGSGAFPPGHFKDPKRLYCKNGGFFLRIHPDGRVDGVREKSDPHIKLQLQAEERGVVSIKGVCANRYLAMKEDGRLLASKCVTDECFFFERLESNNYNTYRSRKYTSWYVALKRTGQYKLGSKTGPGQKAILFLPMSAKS

Turning to `Cc1ccc(C(=O)Nc2ccc(S(=O)(=O)O)c3cc(S(=O)(=O)O)cc(S(=O)(=O)O)c23)cc1NC(=O)c1cccc(NC(=O)Nc2cccc(C(=O)Nc3cc(C(=O)Nc4ccc(S(=O)(=O)O)c5cc(S(=O)(=O)O)cc(S(=O)(=O)O)c45)ccc3C)c2)c1` [suramin], on FGF2-FGFR1 complexes [1], the “dimerization of FGF:FGFR complex (peaks in size exclusion chromatogram)” value is recorded as “only a peak corresponding to the FGF:FGFR dimers is observed” and the “dimerization of FGF:FGFR complex (dimer peak D in size exclusion chromatogram)” value is reported as “a third peak corresponding to dimers of the FGF:FGFR complex is observed”. For the same molecule, the “heparin-like or SOS-like activity (FGF ligand-dependent activation of FGF receptor, BaF3 cell growth)” value in experiment [2] (BaF3 cells grown with suramin instead of heparin or SOS, contacted with FGF ligand) is recorded as “no heparin-like or SOS-like activity was observed”.

As to heparin, the “autophosphorylation of the FGF receptor” value in the experiment on FGFR1 is recorded as “stimulated autophosphorylation of the FGF receptor”. In addition, the “autophosphorylation of ERK-1 and ERK-2” value in the experiment with ERK-1 and ERK-2 is “induces autophosphorylation of ERK-1 and ERK-2”.

Take `O=S(=O)(O)OC[C@H]1O[C@@](COS(=O)(=O)O)(O[C@H]2O[C@H](COS(=O)(=O)O)[C@@H](OS(=O)(=O)O)[C@H](OS(=O)(=O)O)[C@H]2OS(=O)(=O)O)[C@@H](OS(=O)(=O)O)[C@@H]1OS(=O)(=O)O` [SOS, sucrose octasulfate]: at FGF2-FGFR1 complexes [1], the “dimerization of FGF:FGFR complex (peaks in size exclusion chromatogram)” value was “only a peak corresponding to FGF:FGFR dimers is observed” and the “dimerization of FGF:FGFR complex (dimer peak D in size exclusion chromatogram)” value is on record as “a third peak corresponding to dimers of the FGF:FGFR complex is observed”. Further, in experiment [2] (FGF2 50 ng/ml, SOS 0.1, 0.5, 1, 5 and 10 μM), the “proliferation of BaF3 cells over expressing FGFR1 (daily viable cell counts)” value is “supports FGF2 in inducing proliferation of the BaF3 cells over expressing FGFR1 in a dose-dependent manner”. For the same molecule, the “hydrogen bonds of the well ordered SOS molecule with FGF2 and both FGFR1 molecules” value on FGF2-FGFR1 complexes [3] (crystal structure at 2.6 Å resolution) was determined as 13. The “effect on FGF-FGFR binding affinity inferred from the crystal structure” value at FGF2-FGFR1 complexes [3] (interaction mimics heparin) was “increases FGF-FGFR binding affinity”.

On to sulfonated β-cyclodextrin, for which the “proliferation of BaF3 cells over expressing FGFR1 (daily viable cell counts)” value in experiment [4] is given as “supports the FGF ligand in inducing proliferation of the BaF3 cells over expressing FGFR1 in a dose-dependent manner”. Also, the “autophosphorylation of the FGF receptor” value with FGFR1 is listed as “results in autophosphorylation of the FGF receptor”. Moreover, the “autophosphorylation of ERK-1 and ERK-2” value in the experiment on ERK-1 and ERK-2 was “induces autophosphorylation of ERK-1 and ERK-2”.
